Measurements taken from patent US4436751A, “Nitrobenzyl monates antibacterial compounds” (Beecham Group Limited, priority 1980, dated 1984).
Converted amounts (≈) assume the structure as drawn. Read-outs that look alike come from different tables or passages of the source.

Experiments:
Format in all cases: cell-based
mycoplasma organisms = assay: Anti-mycoplasmal activity (summary); conditions: in words
Method: The values were determines in Friis broth solidified with 0.9% agarose. The inoculum was 10^3 to 10^5 C.F.U. and the MIC's were recorded after 6 days incubation at 37° C.

M1 -suiphneumoniae = assay: Anti-mycoplasmal activity relative to O-nitrobenzyl monate A
M. pneumoniae ATCC 15492 = assay: Anti-mycoplasmal MIC in vitro, Friis broth agarose (Table 1); conditions: Mycoplasmoides pneumoniae, ATCC15492, 144 h
Strep. pneumoniae CN33 = assay: Human bacteria MIC, nutrient agar with chocolated horse blood (Table 3); conditions: Streptococcus pneumoniae
Method: (§1) The values were determined by serial dilutions in nutrient agar with 5% chocolated horse blood after incubations for 18 hours at 37° C.

[1] = system: Haemophilus influenzae Wy21; assay: as above; conditions: nutrient agar 5% chocolated horse blood, 18 hours 37° C.
Method: as §1

[2] = system: Treponema hyodysenteriae B10; assay: MIC against Treponema hyodysenteriae, horse blood agar (Table 4); conditions: Brachyspira hyodysenteriae, 48 h; strain B10; 2 days 37° C. anaerobic; read-out: Minimum Inhibitory Concentration (MIC), inhibition of β-haemolysis
Method: (§2) The value were obtained by the following method: The compound was incorporated in horse blood agar, inoculated (multi-point)with 0.001 ml of a 3 day growth of the test organism from base of a blood slope (+1 ml foetal calf serum) and incubated at 37° C. for 2 days under anaerobic conditions. The MIC was taken as the lowest concentration to inhibit β-haemolysis.

[3] = system: Treponema hyodysenteriae P23; assay: as above; conditions: Brachyspira hyodysenteriae, 48 h; strain P23; 2 days 37° C. anaerobic; read-out: Minimum Inhibitory Concentration (MIC), inhibition of β-haemolysis
Method: as §2

[4] = system: Treponema hyodysenteriae S77/10; assay: as above; conditions: Brachyspira hyodysenteriae, 48 h; strain S77/10; 2 days 37° C. anaerobic; read-out: Minimum Inhibitory Concentration (MIC), inhibition of β-haemolysis
Method: as §2

[5] = system: Treponema hyodysenteriae S77/2; assay: as above; conditions: Brachyspira hyodysenteriae, 48 h; strain S77/2; 2 days 37° C. anaerobic; read-out: Minimum Inhibitory Concentration (MIC), inhibition of β-haemolysis
Method: as §2

[6] = system: Treponema hyodysenteriae Navis; assay: as above; conditions: Brachyspira hyodysenteriae, 48 h; strain Navis; 2 days 37° C. anaerobic; read-out: Minimum Inhibitory Concentration (MIC), inhibition of β-haemolysis
Method: as §2

bacteria = assay: Antibacterial activity (summary); conditions: in words
Method: The values were determined using a two fold serial dilutions in Diagnostic Sensitivity Test Agar with an inoculum of 10^4 organisms and incubation for 18 hours at 37° C.
as §1

[7] = M. pneumoniae ATCC 15492, in vitro, 6 days 37° C., read-out: MIC
[8] = Strep. pneumoniae CN33, nutrient agar 5% chocolated horse blood, 18 hours 37° C., read-out: MIC

| SMILES | MIC (M. pneumoniae ATCC 15492; [7]) [µg/mL] | MIC (Strep. pneumoniae CN33; CN33, 18 h) [µg/mL] | MIC [1] [µg/mL] | MIC (M. pneumoniae ATCC 15492) [µg/mL] | further results |
| --- | --- | --- | --- | --- | --- |
| C/C(=C\C(=O)OCc1cccc([N+](=O)[O-])c1)CC1OCC(CC2OC2C(C)C(C)O)C(O)C1O (stereo not shown) [Example 2, m-nitrobenzyl monate A] | 1 (≈ 2.09 µM) | – | – | – | anti-mycoplasmal activity (mycoplasma organisms): outstanding anti-mycoplasmal activity; times more active than O-nitrobenzyl monate A (M1 -suiphneumoniae): approximately 20 times |
| C/C(=C\C(=O)OCc1ccc([N+](=O)[O-])c([N+](=O)[O-])c1)CC1OCC(CC2OC2C(C)C(C)O)C(O)C1O (stereo not shown) [Example 9, 3,4-dinitrobenzyl monate A] | – | 2.5 (≈ 4.77 µM) | 0.25 (≈ 0.477 µM) | – | – |
| C/C(=C\C(=O)OC(C)c1ccc([N+](=O)[O-])cc1)CC1OCC(CC2OC2C(C)C(C)O)C(O)C1O (stereo not shown) [Example 4, 1-(p-nitrophenyl)ethyl monate A] | 10 (≈ 20.3 µM) | – | – | – | MIC (Strep. pneumoniae CN33; [8]): 1 µg/mL (≈ 2.03 µM) |
| C/C(=C\C(=O)OCc1ccccc1[N+](=O)[O-])CC1OCC(CC2OC2C(C)C(C)O)C(O)C1O (stereo not shown) [C, O--nitrobenzyl monate A, reference compound] | 5 (≈ 10.4 µM) | – | – | – | – |
| C/C(=C\C(=O)OCc1ccc([N+](=O)[O-])cc1)CC1OCC(CC2OC2C(C)C(C)O)C(O)C1O (stereo not shown) [Example 1, p-nitrobenzyl monate A] | 0.1 (≈ 0.209 µM) | – | – | – | MIC (Strep. pneumoniae CN33; [8]): 0.1 µg/mL (≈ 0.209 µM); MIC [2]: 2.5 µg/mL (≈ 5.21 µM); MIC [3]: 2.5 µg/mL (≈ 5.21 µM); MIC [4]: 2.5 µg/mL (≈ 5.21 µM); MIC [5]: 2.5 µg/mL (≈ 5.21 µM); MIC [6]: 2.5 µg/mL (≈ 5.21 µM); antibacterial activity as compared to o-nitrobenzyl monate A (bacteria): outstanding antibacterial activity |
| C/C(=C\C(=O)OC(C)c1cccc([N+](=O)[O-])c1)CC1OCC(CC2OC2C(C)C(C)O)C(O)C1O (stereo not shown) [Example 3, 1-(m-nitrophenyl)ethyl monate A] | – | – | – | 5 (≈ 10.1 µM) | – |
| C/C(=C\C(=O)OCc1ccc([N+](=O)[O-])cc1Cl)CC1OCC(CC2OC2C(C)C(C)O)C(O)C1O (stereo not shown) [Example 11, 2-chloro-4-nitrobenzyl monate A] | – | – | – | 2.5 (≈ 4.86 µM) | – |
| C/C(=C\C(=O)OCc1cc([N+](=O)[O-])cc([N+](=O)[O-])c1)CC1OCC(CC2OC2C(C)C(C)O)C(O)C1O (stereo not shown) [Example 6, 3,5-dinitrobenzyl monate A] | – | 0.25 (≈ 0.477 µM) | 0.5 (≈ 0.953 µM) | 2.5 (≈ 4.77 µM) | – |
| C/C(=C\C(=O)OCc1cccc([N+](=O)[O-])c1C)CC1OCC(CC2OC2C(C)C(C)O)C(O)C1O (stereo not shown) [Example 8, 2-methyl-3-nitrobenzyl monate A] | – | – | – | – | MIC (Strep. pneumoniae CN33; [8]): 0.5 µg/mL (≈ 1.01 µM) |
| C/C(=C\C(=O)OCc1ccc([N+](=O)[O-])cc1[N+](=O)[O-])CC1OCC(CC2OC2C(C)C(C)O)C(O)C1O (stereo not shown) [Example 10, 2,4-dinitrobenzyl monate A] | – | 2.5 (≈ 4.77 µM) | 0.5 (≈ 0.953 µM) | 2.5 (≈ 4.77 µM) | – |
| C/C(=C\C(=O)OCc1cc([N+](=O)[O-])cc([N+](=O)[O-])c1C)CC1OCC(CC2OC2C(C)C(C)O)C(O)C1O (stereo not shown) [Example 7, 3,5-dinitro-2-methylbenzyl monate A] | – | 0.5 (≈ 0.928 µM) | 1 (≈ 1.86 µM) | 2.5 (≈ 4.64 µM) | – |
